Converted amounts (≈) assume the structure as drawn.

The text below walks through data of US6919378B2, “Pharmaceutical solutions of modafinil compounds” (Cephalon, Inc., priority 2000, dated 2005).

Data set [1] is described as follows: Water and lipid solubility (observation).
A short description of data set [2]: Solubility of modafinil in solvent composition, measured by HPLC. Format: physicochemical. As to conditions: PEG-400:benzyl alcohol 95:5 (v/v) solvent mixture, organic solvent or mixture, thermodynamic from solid, in 95:5 (v/v) PEG-400:benzyl alcohol, cooled to room temperature, filtered. How it is done:
The following HPLC method may be used to measure the modafinil compound content in the compositions. Filter a solution saturated with a modafinil compound through a 1.2 μm syringe filter. Dilute 10 μL of the clear solution to 1 mL with 990 μL of dimethylsulfoxide (Fischer Certified ACS grade). Take 10 μL of the diluted solution for the HPLC analysis, with the following representative column conditions: • Flow rate: 1.2 mL/min. • Column: ODS, 4.6×20 mm, Column Temp: 30° C. • Mobil phase: 80% (65% Acetonitrile/35% 1M phosphate buffer) • 20% water • Analysis time: 5 minutes • Wavelength: 222 nanometers
Concentration can be calculated by comparison to area from a modafinil compound standard used at 0.4 mg/mL with appropriate dilution.
A mixture of 95 mL of PEG-400 and 5 ml of benzyl alcohol was stirred at room temperature until homogeneous. To a separate container, 0.1 gram of modafinil was weighed and 1 mL of the mixed solvent was added with stirring and heating to 55-60° C. The solution was allowed to cool to room temperature and any undissolved solid was removed by filtering the solution. In the case of a viscous solution or a solution that solidifies at room temperature, warming until a freely flowing solution was obtained and then filtration gave a solution free of particulate matter.

The subject of data set [3] is mice. As to conditions: single administration; cited from earlier work.
The subject of data set [4] is monkeys. As to conditions: single administration; cited from earlier work.

The solubility is the concentration that dissolves in the medium under given conditions. Turning to `NC(=O)C[S+]([O-])C(c1ccccc1)c1ccccc1` (centres unmarked) [modafinil, 2-(benzhydryl-sulfinyl)acetamide], in data set [1], the lipid solubility result is on record as “very poor” and the water solubility result is “very poor”. Besides, the solubility in data set [2] came out at 61 mg/mL (≈ 223 mM). The locomotor activity result in data set [3] is reported as “increased locomotor activity”. In data set [4], the nocturnal activity entry was “increased nocturnal activity”.
